{"source": "patent US20020010182A1", "about": "“Piperazine derivatives as tachykinin antagonists” (FUJISAWA PHARMACEUTICAL CO., LTD., priority 1995, published 2002)", "key": {"[1]": {"molecular_target": "T1, h-NK1 receptors (Homo sapiens, UniProt P25103)", "T1 construct": "expressed in transfected cells; host or cells: CHO cells (permanent expression), crude cell membranes", "T1 sequence (P25103 whole entry)": "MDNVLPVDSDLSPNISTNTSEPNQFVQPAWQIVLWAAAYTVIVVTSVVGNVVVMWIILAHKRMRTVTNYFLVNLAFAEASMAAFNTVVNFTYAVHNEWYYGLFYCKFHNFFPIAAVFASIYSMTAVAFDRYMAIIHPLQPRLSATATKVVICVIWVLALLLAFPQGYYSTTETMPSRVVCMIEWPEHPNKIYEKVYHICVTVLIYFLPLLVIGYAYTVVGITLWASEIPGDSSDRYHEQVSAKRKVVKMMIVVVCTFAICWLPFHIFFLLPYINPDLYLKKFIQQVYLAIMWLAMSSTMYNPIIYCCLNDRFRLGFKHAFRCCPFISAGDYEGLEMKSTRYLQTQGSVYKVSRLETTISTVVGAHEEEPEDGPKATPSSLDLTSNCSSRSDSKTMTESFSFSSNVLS", "assay": "Evaluation of NK1 antagonist transport efficiency to the central nervous system using a h-NK1 receptor binding assay", "conditions": "5 min, brain extract of male SD rats 5 min after i.v. injection of test compound, CHO cell membranes expressing h-NK1, read-out: inhibition rate of 125I-BH-Substance P binding to h-NK1 receptors", "method_in_brief": "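Male SD rats dosed i.v. at 1 mg/kg; brain removed 5 min later after saline perfusion, homogenized, extracted with ethyl acetate. Extract competed against 0.1 nM 125I-BH-Substance P on CHO h-NK1 membranes, 22 °C, 90 min, pH 7.4 Mn2+ buffer; specific binding defined with 3 μM unlabeled Substance P.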"}, "[2]": {"tested_on": "emesis in the ferret", "assay": "Emesis in the ferret (copper sulfate induced)", "type": "in vivo", "conditions": "i.p. dose of 3.2 and/or 10 mg/kg, 30 min before intra-gastric copper sulfate (40 mg/kg/ml); retching and vomiting observed for 30 min", "protocol": "Individually housed adult male ferrets (Marshall Farms, 1.4 to 2.2 kg) were given an i.p. injection of a solution containing a test compound 30 Min later the emetic responses (retching and vomiting) were induced by administration of intra-gastric copper sulfate (40 mg/kg/ml) and observed for the next 30 min. The timing and number of retches and vomits observed were recorded for each animal. An individual animal was tested with at least 10 days between experiments."}}, "data": [{"smiles": "Cc1ccc(C[C@@H]2CN(CCCN3CCSCC3)CCN2C(=O)c2cc(C(F)(F)F)cc(C(F)(F)F)c2)cc1C.Cl.Cl", "note": "[24-(2), (2R)-1-[3,5-Bis(trifluoromethyl)benzoyl]-2-(3,4-dimethylbenzyl)-4-(3-thiomorpholinopropyl) piperazine dihydrochloride]", "values": [{"measurement": "inhibition at 1 mg/kg", "setting": "[1]", "result": "> 80", "unit": "%"}, {"measurement": "inhibition rate of emesis in the ferret", "setting": "[2]", "result": 100, "unit": "%"}, {"measurement": "melting point", "result": "272 °C (dec.)"}]}, {"smiles": "Cc1ccc(C[C@@H]2CN(CCN3CCOCC3)CCN2C(=O)c2cc(C(F)(F)F)cc(C(F)(F)F)c2)cc1C.Cl.Cl", "note": "[37-(5), (2R)-4-(2-Morpholinoethyl)-1-[3,5-bis(trifluoromethyl)benzoyl]-2-(3,4-dimethylbenzyl)piperazine dihydrocloride]", "values": [{"measurement": "inhibition rate of emesis in the ferret", "setting": "[2]", "result": 100, "unit": "%"}]}, {"smiles": "COCC1CN(CC#CCN2CCN(C(=O)c3cc(C(F)(F)F)cc(C(F)(F)F)c3)[C@H](Cc3ccc(C)c(C)c3)C2)CCO1.Cl.Cl", "note": "(stereo partly drawn) [59-(1), (2R)-1-[3,5-Bis(trifluoromethyl)benzoyl]-2-(3,4-dimethylbenzyl)-4-[4-(2-methoxymethylmorpholino)-2-butynyl]piperazine dihydrochloride]", "values": [{"measurement": "inhibition at 1 mg/kg", "setting": "[1]", "result": "> 80", "unit": "%"}, {"measurement": "melting point", "result": "150 to 165", "unit": "°C"}]}, {"smiles": "Cl.Cl.O=C(c1cc(C(F)(F)F)cc(C(F)(F)F)c1)N1CCN(C/C=C/CN2CCOCC2)C[C@H]1Cc1ccc2ccccc2c1", "note": "[62-(1), (2R)-1-[3,5-Bis(trifluoromethyl)benzoyl]-2-(2-naphthylmethyl)-4-[(E)-4-morpholino-2-butenyl]piperazine dihydrochloride]", "values": [{"measurement": "inhibition at 1 mg/kg", "setting": "[1]", "result": "> 80", "unit": "%"}, {"measurement": "melting point", "result": "> 230", "unit": "°C"}]}, {"smiles": "Cl.Cl.O=C(c1cc(C(F)(F)F)cc(C(F)(F)F)c1)N1CCN(CC#CCN2CCSCC2)C[C@H]1Cc1ccc(F)cc1", "note": "[84-(1), (2R)-1-[3,5-Bis(trifluoromethyl)benzoyl]-2-(4-fluorobenzyl)-4-(4-thiomorpholino-2-butynyl) piperazine dihydrochloride]", "values": [{"measurement": "inhibition at 1 mg/kg", "setting": "[1]", "result": "> 80", "unit": "%"}, {"measurement": "melting point", "result": "180 °C (dec.)"}]}, {"smiles": "CC(=O)c1ccc(CN2CCN(C(=O)c3cc(C(F)(F)F)cc(C(F)(F)F)c3)[C@H](Cc3c[nH]c4ccccc34)C2)cc1.Cl", "note": "[Example 7, (2R)-4-(4-acetylbenzyl)-1-[3,5-bis(trifluoromethyl)benzoyl]-2-(1H-indol-3-ylmethyl) piperazine hydrochloride]", "values": [{"measurement": "inhibition at 1 mg/kg", "setting": "[1]", "result": "> 80", "unit": "%"}, {"measurement": "melting point", "result": "172 °C (dec.)"}]}, {"smiles": "CC(=O)c1ccc(C(=O)N2CCN(C(=O)c3cc(C(F)(F)F)cc(C(F)(F)F)c3)[C@H](Cc3ccc(Cl)c(Cl)c3)C2)cc1", "note": "[Example 12, (2R)-4-(4-acetylbenzoyl)-1-[3,5-bis (trifluoromethyl)benzoyl]-2-(3,4-dichlorobenzyl)piperazine]", "values": [{"measurement": "inhibition at 1 mg/kg", "setting": "[1]", "result": "> 80", "unit": "%"}, {"measurement": "inhibition rate of emesis in the ferret", "setting": "[2]", "result": 100, "unit": "%"}]}, {"smiles": "Cl.Cl.O=C(c1cc(C(F)(F)F)cc(C(F)(F)F)c1)N1CCN(CCCN2CC3CCC(CC3)C2)C[C@H]1Cc1c[nH]c2ccccc12", "note": "[Example 22, (2R)-4-[3-(3-azabicyclo(3.2.2]non-3-yl)propyl]-1-[3,5-bis(trifluoromethyl)benzoyl]-2-(1H-indol-3-ylmethyl) piperazine dihydrochloride]", "values": [{"measurement": "inhibition at 1 mg/kg", "setting": "[1]", "result": "> 80", "unit": "%"}, {"measurement": "inhibition rate of emesis in the ferret", "setting": "[2]", "result": 100, "unit": "%"}, {"measurement": "melting point", "result": "194 to 202", "unit": "°C"}]}, {"smiles": "Cl.Cl.O=C(c1cc(C(F)(F)F)cc(C(F)(F)F)c1)N1CCN(CCCN2CCSCC2)C[C@H]1Cc1c[nH]c2ccccc12", "note": "[Example 23, (2R)-1-[3,5-bis(trifluoromethyl)benzoyl]-2-(1H-indol-3-ylmethyl)-4-(3-thiomorpholinopropyl) piperazine dihydrochloride]", "values": [{"measurement": "inhibition at 1 mg/kg", "setting": "[1]", "result": "> 80", "unit": "%"}, {"measurement": "inhibition rate of emesis in the ferret", "setting": "[2]", "result": 100, "unit": "%"}]}, {"smiles": "Cl.Cl.O=C(c1cc(C(F)(F)F)cc(C(F)(F)F)c1)N1CCN(CC#CCN2CCSCC2)C[C@H]1Cc1c[nH]c2ccccc12", "note": "[Example 37-(4), (2R)-4-(4-Thiomorpholino-2-butynyl)-1-[3,5-bis (trifluoromethyl)benzoyl]-2-(1H-indol-3-ylmethyl) piperazine dihydrochloride]", "values": [{"measurement": "inhibition at 1 mg/kg", "setting": "[1]", "result": "> 80", "unit": "%"}, {"measurement": "melting point", "result": "166 to 170", "unit": "°C"}]}, {"smiles": "Cl.Cl.O=C(c1cc(C(F)(F)F)cc(C(F)(F)F)c1)N1CCN(CCN2CCSCC2)C[C@H]1Cc1c[nH]c2ccccc12", "note": "[Example 37-(6), (2R)-4-(2-Thiomorpholinoethyl)-1-[3,5-bis (trifluoromethyl)benzoyl]-2-(1H-indol-3-ylmethyl) piperazine dihydrochloride]", "values": [{"measurement": "inhibition at 1 mg/kg", "setting": "[1]", "result": "> 80", "unit": "%"}, {"measurement": "inhibition rate of emesis in the ferret", "setting": "[2]", "result": 100, "unit": "%"}, {"measurement": "melting point", "result": "170 to 182", "unit": "°C"}]}, {"smiles": "Cc1ccc(C[C@@H]2CN(CCN3CCSCC3)CCN2C(=O)c2cc(C(F)(F)F)cc(C(F)(F)F)c2)cc1C.Cl.Cl", "note": "[Example 37-(8), (2R)-4-(2-Thiomorpholinoethyl)-1-[3,5-bis (trifluoromethyl)benzoyl]-2-(3,4-dimethylbenzyl) piperazine dihydrochloride]", "values": [{"measurement": "inhibition at 1 mg/kg", "setting": "[1]", "result": "> 80", "unit": "%"}, {"measurement": "melting point", "result": 261.5, "unit": "°C"}]}, {"smiles": "Cc1ccc(C[C@@H]2CN(Cc3cnn(C)c3)CCN2C(=O)c2cc(C(F)(F)F)cc(C(F)(F)F)c2)cc1C.Cl", "note": "[Example 51, (2R)-1-[3,5-bis(trifluoromethyl)benzoyl]-2-(3,4-dimethylbenzyl)-4-[(1-methyl-1H-pyrazol-4-yl)methyl]piperazine hydrochloride]", "values": [{"measurement": "inhibition at 1 mg/kg", "setting": "[1]", "result": "> 80", "unit": "%"}, {"measurement": "melting point", "result": "243 to 244", "unit": "°C"}]}, {"smiles": "Cc1ccc(C[C@@H]2CN(CCCCN3CCOCC3)CCN2C(=O)c2cc(C(F)(F)F)cc(C(F)(F)F)c2)cc1C.Cl.Cl", "note": "[Example 54, (2R)-1-[3,5-bis(trifluoromethyl)benzoyl]-2-(3,4-dimethylbenzyl)-4-(4-morpholinobutyl) piperazine dihydrochloride]", "values": [{"measurement": "inhibition at 1 mg/kg", "setting": "[1]", "result": "> 80", "unit": "%"}, {"measurement": "melting point", "result": 279, "unit": "°C"}]}, {"smiles": "Cc1ccc(C[C@@H]2CN(CC#CCN3CCOCC3C)CCN2C(=O)c2cc(C(F)(F)F)cc(C(F)(F)F)c2)cc1C.Cl.Cl", "note": "(stereo partly drawn) [Example 58, (2R)-1-[3,5-bis(trifluoromethyl)benzoyl]-2-(3,4-dimethylbenzyl)-4-[4-(3-methylmorpholino)-2-butynyl]piperazine dihydrochloride]", "values": [{"measurement": "inhibition at 1 mg/kg", "setting": "[1]", "result": "> 80", "unit": "%"}, {"measurement": "melting point", "result": "150 to 160", "unit": "°C"}]}, {"smiles": "Cc1ccc(C[C@@H]2CN(CC#CCN3CCOCC3(C)C)CCN2C(=O)c2cc(C(F)(F)F)cc(C(F)(F)F)c2)cc1C.Cl.Cl", "note": "[Example 59-(3), (2R)-1-[3,5-Bis(trifluoromethyl)benzoyl]-2-(3,4-dimethylbenzyl)-4-[4-(3,3-dimethylmorpholino)-2-butynyl]piperazine dihydrochloride]", "values": [{"measurement": "inhibition at 1 mg/kg", "setting": "[1]", "result": "> 80", "unit": "%"}, {"measurement": "melting point", "result": "180 to 190", "unit": "°C"}]}, {"smiles": "COCCN(C)CCN1CCN(C(=O)c2cc(C(F)(F)F)cc(C(F)(F)F)c2)[C@H](Cc2ccc(C)c(C)c2)C1.Cl.Cl", "note": "[Example 67-(13), (2R)-1-[3,5-Bis(trifluoromethyl)benzoyl]-2-(3,4-dimethylbenzyl)-4-[2-[N-(2-methoxyethyl) -N-methylamino]ethyl]piperazine dihydrochloride]", "values": [{"measurement": "inhibition at 1 mg/kg", "setting": "[1]", "result": "> 80", "unit": "%"}, {"measurement": "melting point", "result": "222 °C (dec.)"}]}, {"smiles": "Cc1ccc(C[C@@H]2CN(C/C=C\\CN3CCOCC3)CCN2C(=O)c2cc(C(F)(F)F)cc(C(F)(F)F)c2)cc1C.Cl.Cl", "note": "[Example 72, (2R)-1-[3,5-Bis(trifluoromethyl)benzoyl]-2-(3,4-dimethylbenzyl)-4-[(Z)-4-morpholino-2-butenyl]piperazine dihydrochloride]", "values": [{"measurement": "inhibition at 1 mg/kg", "setting": "[1]", "result": "> 80", "unit": "%"}, {"measurement": "melting point", "result": "243 to 246", "unit": "°C"}]}, {"smiles": "Cc1ccc(C[C@@H]2CN(CCCCCN3CCOCC3)CCN2C(=O)c2cc(C(F)(F)F)cc(C(F)(F)F)c2)cc1C.Cl.Cl", "note": "[Example 74, (2R)-1-[3,5-Bis(trifluoromethyl)benzoyl]-2-(3,4-dimethylbenzyl)-4-(5-morpholinopentyl) piperazine dihydrochloride]", "values": [{"measurement": "inhibition at 1 mg/kg", "setting": "[1]", "result": "> 80", "unit": "%"}, {"measurement": "melting point", "result": "235 to 238", "unit": "°C"}]}, {"smiles": "Cc1ccc(C[C@@H]2CN(C/C=C/CN3CCOCC3)CCN2C(=O)c2cc(C(F)(F)F)cc(C(F)(F)F)c2)cc1C.Cl.Cl", "note": "[Example 75, (2R)-1-[3,5-bis(trifluoromethyl)benzoyl]-2-(3,4-dimethylbenzyl)-4-[(E)-4-morpholino-2-butenyl]piperazine dihydrochloride]", "values": [{"measurement": "inhibition at 1 mg/kg", "setting": "[1]", "result": "> 80", "unit": "%"}, {"measurement": "melting point", "result": "236 to 242", "unit": "°C"}]}, {"smiles": "Cl.Cl.O=C(c1cc(C(F)(F)F)cc(C(F)(F)F)c1)N1CCN(C/C=C/CN2CCOCC2)C[C@H]1Cc1c[nH]c2ccccc12", "note": "[Example 76, (2R)-1-[3,5-Bis(trifluoromethyl)benzoyl]-2-(1H-indol-3-ylmethyl)-4-[(E)-4-morpholino-2-butenyl]piperazine dihydrochloride]", "values": [{"measurement": "inhibition at 1 mg/kg", "setting": "[1]", "result": "> 80", "unit": "%"}, {"measurement": "melting point", "result": "123 to 128", "unit": "°C"}]}, {"smiles": "Cl.Cn1cc(CN2CCN(C(=O)c3cc(C(F)(F)F)cc(C(F)(F)F)c3)[C@H](Cc3c[nH]c4ccccc34)C2)cn1", "note": "[Example 77, (2R)-1-[3,5-bis (trifluoromethyl)benzoyl]-2-(1H-indol-3-ylmethyl)-4-[(1-methyl-1H-pyrazol-4-yl)methyl]piperazine hydrochloride]", "values": [{"measurement": "inhibition at 1 mg/kg", "setting": "[1]", "result": "> 80", "unit": "%"}, {"measurement": "melting point", "result": "122 to 136", "unit": "°C"}]}, {"smiles": "CC1(C)COCCN1CC=CCN1CCN(C(=O)c2cc(C(F)(F)F)cc(C(F)(F)F)c2)[C@H](Cc2c[nH]c3ccccc23)C1.Cl.Cl", "note": "[Example 86, (2R) -1-[3,5-Bis(trifluoromethyl)benzoyl]-2-(1H-indol-3-ylmethyl)-4-[4-(3,3-dimethylmorpholino)-2-butenyl]piperazine dihydrochloride]", "values": [{"measurement": "inhibition at 1 mg/kg", "setting": "[1]", "result": "> 80", "unit": "%"}, {"measurement": "melting point", "result": "210 °C (dec.)"}]}]}
